Data as given in patent US20030118983A1, “Rapid screening procedure for inflammation mediators” (priority 2000, published 2003).

How the values were obtained:
Type in all cases: cell-based, human
PMNs [1] = assay: Heme protein effect on DCFH oxidation in unstimulated, LPS and TNFα-, and PMA-stimulated PMNs, with or without NOS inhibitors, SOD or antioxidants; conditions: 10,000 U/mL; 26,300 μg/mL, 30 μg/mL oxyMb
PMNs [2] = assay: as above; conditions: for increase in DCFH oxidation compared with 0 and 1000 μg/mL oxyMb: 30 μg/mL oxyMb
Protocol: DCFH-loaded PMNs were incubated with and without N-methyl-L-arginine (L-NMMA; 5 mM; Calbiochem, San Diego, Calif.) and heme proteins (0.3-1000 μg/mL) at 37 ° C. for 10 minutes. […] In unstimulated and LPS and TNFα -stimulated PMNs, the treatments were oxyMb, or oxyMb+L-NMMA (5 mM). […] RBC cell membranes were ruptured using a micro-ultrasonic cell disrupter, Kontes, Janke and Kukel Gmbh and CO. (Stauten, Germany). […] OxyMb was prepared by mixing excess sodium dithionite with Mb for 1 h and inorganic sulfur compounds were removed by dialyzing in HBSS buffer for 3 h. Percent iron in the ferric state in non-dithionite treated oxyMb or oxyHb was not assessed. […] […] cross-linked Hb was a gift from Walter Reed Army Institute of Research. […] Also, various concentrations of bovine liver Cu, Zn SOD (30-10,000 U/mL; 8-2640 μg/mL) and 30 μg/mL oxyMb were incubated with PMA-stimulated PMNs pretreated with and without L-NMMA. Flow cytometric measurements of oxidant-induced DCF fluorescence were performed as described above.

PMNs [3] = assay: Extracellular O2.− produced by PMA-stimulated PMNs (cytochrome c reduction)
Protocol: PMNs (200,000/200 μl HBSS) were treated with various concentrations of oxyMb or bovine liver Cu, Zn SOD (0.05-1000 μg/mL) in a 340 ATTC 96-well reader (SLT-Labinstruments, Salzburg, Austria) and activated with PMA. O2.^− production was determined by measuring reduction of cytochrome c, at 550 nm.

PMNs [4] = assay: Propidium iodide determination of PMN viability (membrane integrity); conditions: oxyMb 30 μg/mL, PMA 2 h
Protocol: (§1) PMNs were incubated with and without L-NMMA (5 mM) and oxyMb (1-1000 μg/mL) for 10 min at 37° C. followed by PMA (200 nM) for 2 h at 37° C. Membrane integrity was determined flow cytometry analyses after a 2-3 min treatment with PI (0.75 mM).

PMNs [5] = assay: Total nitrite/nitrate levels in filtrates of PMA-stimulated PMNs; conditions: oxyMb 30 μg/mL
Protocol: Total nitrate and nitrite levels in filtrates of PMNs were determined by reducing the nitrate to nitrite by nitrate reductase and reacting the resulting nitrite with 2,3-diaminonaphthalene to form a fluorescent product. PMNs (500,000/300 ul HBSS) were treated with oxyMb (1-1000 µg/mL) and SOD (30 U) for 10 min followed by PMA (200 nM) for 1 h at 30° C. Filtrates were collected by centrifugation at 16,000 g for 15 min through Ultrafree-MC 10,000 NMWL filters (Millipore, Bedford, Mass.). Total nitrite levels were determined with a 96-well fluorescence analyzer (IDEXX, Westbrook, Me.). PMNs exposed to the same treatment were analyzed by flow cytometry for DCFH oxidation.

PMNs [6] = assay: DNA strand breaks in PMA-activated PMNs (tdt-mediated dUTP nick end labeling); conditions: oxyMb 30 μg/mL, PMA 2 h
Protocol: OxyMb effect on DNA strand breaks in PMA-activated PMNs was measured by flow cytometry using the tdt-mediated dUTP nick end labeling assay (In Situ Cell Death Detection Kit, Fluorescein, Boehringer Mannheim, Indianapolis, Ind.) according to manufacturer's instructions. PMNs were incubated with and without NMMA (5 mM) and oxyMb (1-1000 μg/mL) for 10 min at 37° C. PMNs were subsequently treated with PMA (200 nM) for 2 h at 37° C. Label solutions without terminal transferase or with DNase I (10 U) served as negative and positive controls, respectively.

PMNs [7] = assay: Phosphatidylserine externalization on PMN plasma membrane (annexin V); conditions: oxyMb 30 μg/mL, PMA 1 h
Protocol: Levels of phosphatidylserine on the outer surface of plasma membrane were determined by FITC-labeled annexin V (8 μg per 300,000 PMNs/100 μL) according to manufacturer's instructions (Caltag Laboratories, Burlingame, Calif.). PMNs were incubated with and without L-NMMA (5 mM) and oxyMb (1-1000 μg/mL) for 10 min at 37° C. followed by PMA (200 nM) for 1 h at 37° C. PMNs were then incubated with annexin V for 30 min and propidium iodide (0.75 mM) for 2-3 min at 4° C. prior to flow cytometric analyses.

PMNs [8] = assay: ATP levels in PMA-activated PMNs (bioluminescent somatic cell assay); conditions: oxyMb 30 μg/mL, PMA 2 h
Protocol: OxyMb effect on ATP levels in PMA-activated PMNs was measured using the Bioluminescent Somatic Cell Assay Kit according to the manufacturer's instructions. PMNs were incubated with and without L-NIO (5 mM) and oxyMb (1-1000 μg/mL) for 10 min at 37° C. PMNs were subsequently treated with PMA (200 nM) for 2 h at 37° C. PMNs were lysed, frozen at −20° C. and analyzed within 24 h. Emitted light was determined in a camera luminometer, Tropix (Redford, Mass.) using Panchromatic black and white, ISO 20,000, type 612 film, Polaroid (Cambridge, Mass.) with an exposure time of 2.5 min. Level of exposure was measured and digitized with a solid state camera, COHU (San Diego, Calif.) and analyzed using the public domain NIH Image 1.55 program. Statistical analysis. All values are presented as mean±SEM. The Kolmogorov-Smirnov test was used to verify the normal distribution of the data. Groups were compared by using analysis of variance with the Fisher least significant difference (LSD) post hoc procedure. Statistical significance was accepted at P values<0.05.

lymphocytes = assay: Plasma membrane integrity of lymphocytes co-incubated with PMA-activated, oxyMb-treated PMNs; conditions: oxyMb 30 μg/mL
Protocol: as §1
A mixed PMN/lymphocyte preparation was used to determine if the NO. produced by PMNs could affect the plasma membrane integrity of neighboring lymphocytes. PMA-activated and oxyMb (30 μg/mL)-treated PMNs decreased lymphocyte plasma membrane integrity as the ratio of PMNs/lymphocyte increased from 0:1 (76%) to 4:1 (68%) to 10:1 (61%).

PMNs [9] = assay: OxyHb-FLEX bound to and internalized into PMNs (flow cytometry); conditions: concentrations ≧30 μg/mL
Protocol: OxyHb bound to and internalized into PMNs was determined using fluorescein-conjugated oxyHb (Molecular Probes, Eugene, Oreg.). […] Flow cytometric measurements were performed as described above. To visualize intracellular levels of oxyHb-FLEX, whole cell and Z-plane images of PMNs were collected using an Axiovert 135 inverted confocal microscope (Zeiss, Thornwood, N.Y., and Atto Instruments, Rockville, Md.).

[10] = LPS and TNFα-stimulated PMNs, 30 ug/mL oxyMb

Substance: Bovine liver SOD: bovine liver Cu, Zn superoxide dismutase
- effect on DCF fluorescence at highest SOD concentration (PMNs [1]): reduced DCF fluorescence below control levels
- SOD concentration producing peak levels of DCFH oxidation (PMNs [2]; PMA-stimulated PMNs, in the presence of 30 μg/mL oxyMb): 300 U/mL
- potency in reducing extracellular O2.− relative to oxyMb (PMNs [3]): 100-1000 fold

Substance: oxymyoglobin [oxyMb]
- PMN plasma membrane damage (reduced viability) (PMNs [4]): 87%
- PMN plasma membrane damage, higher than PMNs without oxyMb (PMNs [4]): 3 fold
- nitrite levels compared with untreated PMNs (PMNs [5]): doubling
- PMNs containing DNA strand breaks (PMNs [6]): 50%
- PMNs containing DNA strand breaks, greater than PMNs without oxyMb (PMNs [6]): 4 fold
- phosphatidylserine positive PMNs (PMNs [7]): 20%
- phosphatidylserine positive PMNs, greater than PMNs without oxyMb (PMNs [7]): 5 fold
- intracellular ATP levels (PMNs [8]): 6 ng/300,000 PMNs
- intracellular ATP levels, lower than PMNs without oxyMb (PMNs [8]): 9 fold
- lymphocyte plasma membrane integrity (lymphocytes; PMNs/lymphocyte ratio 0:1, PMA): 76%
- lymphocyte plasma membrane integrity (lymphocytes; PMNs/lymphocyte ratio 4:1, PMA): 68%
- lymphocyte plasma membrane integrity (lymphocytes; PMNs/lymphocyte ratio 10:1, PMA): 61%
- oxyMb concentration at which DCFH oxidation peaked (PMNs [2]; LPS and TNFα-stimulated PMNs): 30 µg/mL
- increase in DCFH oxidation compared with 0 μg/mL oxyMb (PMNs [2]; [10]): approximately 6 fold
- increase in DCFH oxidation compared with 1000 μg/mL oxyMb (PMNs [2]; [10]): ~3 fold
- oxyMb concentration of peak response in DCFH oxidation (PMNs [2]; PMA-stimulated PMNs): 30 µg/mL
- increase in DCFH oxidation compared with 0 and 1000 μg/mL oxyMb (PMNs [2]; PMA-stimulated PMNs): approximately 3 fold
- DCFH fluorescence relative to control levels (PMNs [2]; oxyMb 100 μg/mL in the presence of albumin, data not shown): 5 times
- increase in DCFH oxidation compared with 0 and 1000 μg/mL oxyMb (PMNs [2]; unstimulated PMNs): approximately 4 fold

Substance: fluorescein-5-EX succinimidyl ester conjugated to oxyhemoglobin [OxyHb-FLEX]
- OxyHb-FLEX bound to and internalized into PMA-stimulated PMNs relative to unstimulated PMNs (PMNs [9]): 2-6 fold
